Where two headings read alike, the source gives them in different places.
What was measured:
Escherichia coli MG1655 = assay: Antibiotic MIC determination (serial twofold dilutions, OD600 during 17 hours at 37° C.); format: cell-based
Method: The Minimal Inhibitory Concentration (MIC) of the antibiotics was determined under the same culture conditions as the tests using the ATP assay kit. […] An exponentially growing culture (OD600=0.3) was added to each well (60 μl/well) of a sterile microtiter plate containing the test concentration of antibiotic (40 μl/well). The volume was completed to 120 μl with medium and OD600 nm measurements were performed using a microtiter plate reader (Infinite 200 PRO, TECAN) during 17 hours at 37° C.
In all the following experiments, the MIC values were measured for each antibiotic with parameters such as temperature, OD600 and equipment identical to those used for the bioluminescence assay.

[1] = tested on: E. coli MG1655 reporter cells; format: cell-based, Escherichia coli
Method: The classical luciferase was from Molecular Probes (ATP Determination Kit (A22066)). The thermostable luciferase was from “CheckLite AT100” (kikkoman). The Luciferin-luciferase reagents were prepared following manufacturer instructions. Bacteria from exponentially growing cultures (OD600=0.3) were added to each well (60 μl/well) of a black 96-microtiter plate (Greiner Bio-one, 655076) and 20 μl of the luciferin-luciferase reagent solution was added. The microtiter plate was incubated 5 min at 37° C. for reaction with the luciferase to eliminate traces of extracellular ATP. Then 40 μl of antibiotic solution (3 times concentrated) prepared in the culture medium were added. Bioluminescence of each well was monitored for 4 hours under shaking (218 rpm) and at 28 or 37° C., depending on the experiments (see legends of Figures). The reagent stability in presence or absence of antibiotics was checked in control experiments without bacteria but with 4 pmoles of ATP. Tests were also performed in 384-microtiter plates (Greiner Bio-one, 784076).
Aminoglycosides are bactericidal antibiotics causing translational miscoding with lethal consequences for the cell. Leakage of small molecules following an aminoglycoside shock was previously identified by different methods including radiolabelling. Therefore, the inventors investigated the response of live cells to aminoglycoside stress.

E. coli MG1655 KanR = assay: ATP leakage assay on aminoglycoside resistant strain (KanR, APH(3′)-IIa); format: cell-based, Escherichia coli; conditions: MOPS minimal medium (glucose 0.4%), increasing concentrations, 37° C.
Method: FIG. 7. Absence of ATP leakage with an aminoglycoside resistant strain E. coli MG1655. The resistant strain (MG KanR) contains the gene for expression of the aminoglycoside O-phosphotransferase APH(3′)-IIa. ATP release of resistant (KanR) or non-resistant (WT) MG 1655 E. coli cells exposed in MOPS minimal medium (glucose 0.4%) to increasing concentrations of neomycin at 37° C. ATP leakage was absent for the resistant strain (KanR).
The classical luciferase was from Molecular Probes (ATP Determination Kit (A22066)). The thermostable luciferase was from “CheckLite AT100” (kikkoman). The Luciferin-luciferase reagents were prepared following manufacturer instructions. Bacteria from exponentially growing cultures (OD600=0.3) were added to each well (60 μl/well) of a black 96-microtiter plate (Greiner Bio-one, 655076) and 20 μl of the luciferin-luciferase reagent solution was added. The microtiter plate was incubated 5 min at 37° C. for reaction with the luciferase to eliminate traces of extracellular ATP. Then 40 μl of antibiotic solution (3 times concentrated) prepared in the culture medium were added. Bioluminescence of each well was monitored for 4 hours under shaking (218 rpm) and at 28 or 37° C., depending on the experiments (see legends of Figures). The reagent stability in presence or absence of antibiotics was checked in control experiments without bacteria but with 4 pmoles of ATP. […]

E. coli = assay: Survival assay (kill curves, CFU) with neomycin; format: cell-based, Escherichia coli; conditions: different neomycin concentrations, LB
S. aureus USA300 = assay: CFU kill assay of stationary phase cells with or without centrifugation; format: cell-based, Staphylococcus aureus
Method: FIG. 4. A. Centrifugation with change for fresh medium prior to aminoglycoside exposure stimulates drug bactericidal effect. S. aureus USA300 in TSB medium with 0.25% glucose was incubated until stationary phase has been reached at 37° C. Cells were either centrifuged at 12 000 rpm for 5 minutes (+) or placed at 37° C. without centrifugation (≠). After centrifugation, pellets were washed with fresh broth and placed at 37° C. Depending on the test, different concentrations of neomycin were added. S. aureus USA300 samples that were centrifuged and washed with fresh broth are more sensitive to neomycin. For instance, bacterial CFU go below the detection threshold (10^2 CFU/ml) at 2 hours for 8 mM and 2 mM concentrations while it takes 2 more hours for the 0.5 mM concentration. Bars represent the standard error from the mean (SEM) calculated on GraphPad Prism version 8.4.1. B. S. aureus USA300 in TSB medium with 0.25% glucose was incubated until stationary phase has been reached at 37° C. Cells were either centrifuged at 12 000 rpm for 5 minutes or placed at 37° C. without centrifugation. After centrifugation, pellets were washed with fresh broth and placed at 37° C. A volume of 100 μL of fresh media with 4 mM of neomycin was added to all the tubes (final concentration at 2 mM), centrifuged or not, 5, 15, 30, 60 and 120 minutes post-centrifugation. Samples were incubated for a total of 2 hours with the neomycin before being washed three times with PBS 1×, diluted and incubated on tryptic soy agar. The next day, colony forming units/mL were counted. Bars represent the standard deviation (SD) calculated on GraphPad Prism version 8.4.3.

[2] = tested on: biofilm of the multidrug-resistant Staphylococcus aureus USA300 strain; assay: Drug dependent ATP release from biofilm; format: cell-based; conditions: washed biofilm, 37° C., FIG. 20b
Method: FIG. 20. Drug dependent ATP release from biofilm of the multidrug-resistant Staphylococcus aureus USA300 strain. A, Control experiment at 37° C. in absence of antibiotic. Biofilms were washed with MOPS medium prior to be exposed to neomycin in the bioluminescent assay. Biofilms were obtained as described in the Examples section and washed twice with MOPS-G medium. Wash solutions were tested for the presence of ATP with the bioluminescence assay. […] Washed biofilms were then tested for ATP release. Signals were present in the first 40 min. This ATP release probably originates from shaking of the biofilm in the plate reader with physical perturbation of the biofilm. B, Biofilm response at 37° C. to drug exposure.
Biofilms were produced by following standard protocols. Briefly, S. aureus USA300 was incubated overnight in tryptic-soy broth (with 0.25% glucose) at 37° C. with 180 rpm agitation. Wells of a FLUOTRAC™ microplate (sterilized beforehand) were then filled with 150 μl of the inoculated broth previously diluted to obtain average concentrations between 10^5-10^6 CFU/ml. The microplate was covered and incubated at 37° C. for 18 hours. Biofilms were then washed twice with 150 μl of MOPS. 80 μl of the wash solution was not discarded and placed in an adjacent well to observe the quantity of ATP it contained. […]

## Neomycin
Escherichia coli MG1655; LB medium, OD600 0.15 final, 37° C.
  MIC in LB: 22.8 µg/mL
Escherichia coli MG1655; MOPS minimal medium glucose 0.4%, 37° C.
  MIC in MOPS glucose 0.4%: 0.8 µg/mL
Escherichia coli MG1655; Mueller Hinton media, EUCAST inoculum
  Experimental MIC: 3.12 µg/mL
[1]; LB medium, 37° C., FIG. 8
  Shape of ATP release trace: bi-phasic
[1]; MOPS minimal medium (glucose 0.4%), FIG. 11
  Shape of ATP release trace: monophasic
[1]; antibiotic at 5.6 μg/mL, LB, 37° C.
  Lag time before ATP: 48.6 min
[1]; antibiotic at 11.25 μg/mL, LB, 37° C.
  Lag time before ATP: 42.4 min
[1]; antibiotic at 22.8 μg/mL, LB, 37° C.
  Lag time before ATP: 16.3 min
[1]; antibiotic at 45.0 μg/mL, LB, 37° C.
  Lag time before ATP: 12.8 min
[1]; antibiotic at 91.0 μg/mL, LB, 37° C.
  Lag time before ATP: 9.4 min
[1]; highest concentrations tested, LB, 37° C.
  Lag before ATP release (shortest, incompressible value): about 9.4 min
E. coli MG1655 KanR
  ATP leakage: absent
E. coli
  Number of colonies forming units (CFU) during the first 90 minutes: remained constant
S. aureus USA300; 0.5 mM, samples centrifuged and washed, compared with 8 mM and 2 mM
  Time at which bacterial CFU go below the detection threshold (10^2 CFU/ml): 2 more hours
S. aureus USA300; 2 mM, samples centrifuged and washed with fresh broth
  Time at which bacterial CFU go below the detection threshold (10^2 CFU/ml): 2 hours
S. aureus USA300; 8 mM, samples centrifuged and washed with fresh broth
  Time at which bacterial CFU go below the detection threshold (10^2 CFU/ml): 2 hours
[2]
  ATP release from biofilm: triggered ATP release

— US12595504B2, “Methods for screening compounds for bactericidal activity and for determining the sensitivity of bacterial samples” (priority 2020, dated 2026)
